In PubChem BioAssay (NCI) one finds TGI data, which are given here for 23 compounds.

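Method: 48-hour compound exposure of cells in 96-well plates, five concentrations, linear interpolation of endpoints. TGI: total growth inhibition.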

Holding throughout (assay): inhibition of tumour cell growth, NCI panel, 48 h
Test [1] concerns HOP-92 NSCLC.
Test [2] has as its system M14 melanoma.
Test [3] relates to NCI-H522 lung.
The test system of test [4] is KM12 colon.
Test [5] has as its system U251 CNS.
The test system of test [6] is ACHN renal.
In test [7] the test system is SF-268 CNS.
Test [8] concerns OVCAR-5 ovarian.
Test [9] deals with CCRF-CEM leukemia.
Test [10] relates to SK-OV-3 ovarian.
For test [11], the system named is 786-0 renal.
For test [12], the system named is SF-539 CNS.
Test [13] concerns MOLT-4 leukemia.

As to `COC(=O)C1C2C=CC(C2)N1[C@@H](C)c1ccccc1` (some centres undefined), the TGI in test [1], in test [2], in test [3], in test [4], in test [5] and in test [6] was above 100 µM in each case. In addition, the TGI in test [7], in test [8], in test [9], in test [10], in [11] and in [12] was above 100 µM in each case.

With `S=C1N=C(Cl)C2(NN1)c1ccccc1-c1ccccc12`, the TGI in test [13], in test [1], in [2], in [4], in test [5] and in test [7] was above 10 µM each time. Also, the TGI in test [9], in [10], in [11] and in test [12] was above 10 µM throughout.

On to `CC(=O)NC1=C(C)C(=O)c2c(nc3n2CCC3O)C1=N` (centres undefined), for which the TGI was above 100 µM in test [13]; 15.3 µM in [1]; 19.6 µM in [3]; 34.3 µM in [4]; 26.9 µM in [5]; 37.7 µM in test [6]. In addition, the TGI in [7] is 22.3 µM; in test [8] it was 36.6 µM; in test [9], above 100 µM; in test [10] it was 97.1 µM; in test [11] it was 40.4 µM; in test [12], 13.9 µM.

`CN(CCc1ccc(N)cc1)[C@H]1CCCC[C@H]1N1CCCC1`: the TGI in test [13], in test [1], in [2], in [3], in test [4] and in test [5] was above 100 µM in each case. For the same compound, the TGI in test [6], in test [7], in test [8], in test [10] and in [11] was above 100 µM in each case.

In the case of `C=CC[C@H](C)CCC(=O)N1[C@H]2CC3CC[C@@]2(CS1(=O)=O)C3(C)C`, the TGI in test [13] is 68.1 µM; in test [1], above 100 µM; in [2] it was above 100 µM; in [3] it was 99 µM; in [4], above 100 µM; in test [5], above 100 µM. Moreover, the TGI in test [6] was above 100 µM; in test [7] it was above 100 µM; in test [8], above 100 µM; in test [9] it was 59.2 µM; in test [10] it was above 100 µM; in test [11] it was above 100 µM.

`COC(=O)c1c(C)cccc1/C=C1\Cc2cc(C)cc(C)c2C1=O`: the TGI in [13] is above 100 µM; in test [1] it was 39.4 µM; in test [2], above 100 µM; in test [3], above 100 µM; in test [4], above 100 µM; in test [5] it was 48.2 µM. In addition, the TGI in [6], in [7], in test [8], in [9], in test [11] and in [12] was above 100 µM each time.

`CC(C)C1OC(=O)/C=C/C=C/C=C/C=C/C=C/CC(O)CC(O)CC(O)CC(O)CC(O)CC(O)CC(O)CC(O)/C=C/C1C` (centres undefined): the TGI in test [13], in [1], in [2], in test [4], in [5] and in [6] was above 100 µM in each case. In addition, the TGI in test [7], in test [8], in test [9], in test [11] and in [12] was above 100 µM each time.

With `C[C@H](O)C1CC(Cn2nnc3c(N)ncnc32)C1(C)C` (some centres undefined), the TGI in [1], in [2], in test [4], in test [5], in test [6] and in [7] was above 100 µM each time. Further, the TGI in test [8], in [9], in [10], in test [11] and in test [12] was above 100 µM each time.

For `COc1cc2c(cc1OC)CC(N=[N+]=[N-])c1cc(OC)c(OC)cc1/C=C\2` (centres undefined), the TGI in [13], in [1], in test [2], in [3], in test [4] and in test [5] was above 100 µM each time. The TGI in test [6], in [7], in [8], in test [10], in test [11] and in test [12] was above 100 µM in each case.

For `CCOc1cc(NC(C)=O)ccc1C(=O)NN1C(=O)/C(=C/c2cc(OC)c(OC)c(OC)c2)N=C1c1ccccc1`, the TGI in [13] is above 100 µM; in [1] it was above 100 µM; in [2] it was above 100 µM; in [3], above 100 µM; in test [4] it was 98.2 µM; in test [6], above 100 µM. Moreover, the TGI in test [7], in test [8], in [9], in test [10], in test [11] and in [12] was above 100 µM each time.

With `COc1ccc(-c2cc(-c3cc(OC)c(OC)c(OC)c3)cc(-c3cc4ccccc4oc3=O)n2)cc1`, the TGI is above 100 µM in [13]; 16.8 µM in [1]; above 100 µM in test [2]; 34.5 µM in [3]; above 100 µM in test [4]; 12.5 µM in test [5]. Besides, the TGI is 16.3 µM in test [6]; 16.7 µM in test [7]; above 100 µM in test [9]; 14.5 µM in [10]; 5.34 µM in test [11]; 7.88 µM in test [12].

As to `C1=C\CCCCN2C[C@H]3CCCC/C=C\CCCCN4CC[C@@H]([C@H](CCCCCC/1)C4)[C@H](C3)C2`, the TGI is 4.79 µM in [13]; above 20.2 µM in [1]; 3.33 µM in test [3]; 4.03 µM in test [4]; 3.41 µM in test [5]; 4.06 µM in [6]. The TGI in [7] amounted to 5.74 µM; in test [8], 21.4 µM; in [10] it was 22.8 µM; in test [11], 3.16 µM; in test [12] it was 3.9 µM.

Take `Brc1ccc2[nH]cc(-c3nc(-c4c[nH]c5ccccc45)cs3)c2c1`: the TGI in test [1] is 7.86 µM; in test [2], 3.73 µM; in test [3], 3.73 µM; in test [4] it was 5.1 µM; in test [5], 8.38 µM; in test [6] it was 8.75 µM. Also, the TGI in test [7] was 11.4 µM; in test [8], 5.37 µM; in test [9], above 26.2 µM; in test [10], 21.4 µM; in test [11], 8.55 µM; in test [12], 10.8 µM.

On to `COc1cc2c(c(OC)c1OC)-c1ccc(SC)cc1[C@H](OC(=O)c1ccccc1)CC2`, for which the TGI in test [13], in [1], in test [4], in test [6], in test [7] and in test [8] was above 100 µM in each case. In addition, the TGI in test [9] was above 100 µM; in [10], above 100 µM; in test [11] it was above 100 µM; in [12], 0.0841 µM.

`CC(C)C1CC(O)O[C@@H]([C@@H](C)[C@H]2CC(=O)[C@@H]3[C@@H]4[C@@H](O)[C@H](O)[C@H]5[C@@H](O)[C@H](O)CC[C@]5(C)[C@H]4CC[C@]23C)C1` (some centres undefined): the TGI is above 100 µM in test [13]; 57.1 µM in test [1]; above 100 µM in test [2]; above 100 µM in test [3]; above 100 µM in test [4]; above 100 µM in test [5]. Moreover, the TGI in [6] is 62.1 µM; in test [7], above 100 µM; in test [9], above 100 µM; in test [10], above 100 µM; in test [11] it was above 100 µM; in test [12] it was above 100 µM.

`COc1cc(COC(=O)N2CCC2C(=O)O)c([N+](=O)[O-])cc1OC` (centres undefined): the TGI in test [13], in test [1], in test [2], in [4], in test [5] and in test [6] was above 100 µM each time. Besides, the TGI in test [7], in test [8], in test [9], in test [10], in test [11] and in test [12] was above 100 µM in each case.

Take `CNC1=CC(=O)C2=C(C1=O)[C@H]1CC[C@]3(C)C(=O)CC[C@H]3[C@@H]1CC2`: the TGI in test [13] was above 49.1 µM; in test [1], 25.7 µM; in [2], 28 µM; in test [4], 23.6 µM; in test [5], above 60.2 µM; in test [6], 71.4 µM. Further, the TGI in test [8] is 51 µM; in [9], 30.4 µM; in test [10], above 100 µM; in [11], 38.3 µM; in test [12], 32.3 µM.

As to `O=[N+]([O-])c1cccnc1NCC1(CO)CC(Cc2ccccc2)C1` (centres undefined), the TGI in [13] was above 100 µM; in test [1], 60.1 µM; in test [3], above 100 µM; in test [4], above 100 µM; in test [5], above 100 µM; in test [6], above 100 µM. The TGI in test [7], in test [8], in test [9], in [10], in [11] and in [12] was above 100 µM throughout.

Turning to `Cn1c(-c2cccs2)cc(-c2cccs2)c1-c1ccsc1`, the TGI in test [13], in test [1], in test [2], in test [4], in [5] and in [6] was above 100 µM throughout. The TGI in test [7], in test [8], in [9], in [10], in [11] and in [12] was above 100 µM each time.

For `Cc1ccc(N=C2C(=O)C3=C(OC(C)(C)CC3)c3ccccc32)cc1`, the TGI in test [13] came to 3.08 µM; in test [1], 3.2 µM; in test [2] it was 1.59 µM; in test [3] it was 3 µM; in [4] it was 4.01 µM; in [5], 1.91 µM. Also, the TGI in [6] turned out to be 1.54 µM; in [7], 6.37 µM; in test [8] it was 3.5 µM; in test [9] it was 10.1 µM; in test [10], 3.1 µM; in test [11] it was 3.18 µM.

For the compound `CC(C)CCn1c(=O)c2c(=O)[nH][nH]c2c2ccccc21`, the TGI in [1], in test [3], in [4], in test [5], in test [6] and in [8] was above 100 µM each time. Also, the TGI in test [9], in test [11] and in test [12] was above 100 µM each time.

Consider `COc1ccc2c3c1OC1c4[nH]c5ccccc5c4CC4(O)C(C2)N(C)CCC314` (centres undefined), for which the TGI was 54.1 µM in [13]; 48.7 µM in test [1]; 32.3 µM in test [2]; 81.4 µM in test [3]; above 100 µM in test [4]; 44.8 µM in test [5]. In addition, the TGI is 75.6 µM in test [6]; above 100 µM in test [7]; above 100 µM in [8]; 52.8 µM in [9]; above 100 µM in test [10]; 34.3 µM in [11].

For `c1cc2c(c(-c3c4ccccc4nc4ccccc34)c1)CC1(CC2)OCCO1`, the TGI in [13], in test [1], in test [2], in test [3], in [4] and in [5] was above 100 µM each time. The TGI in test [6], in test [7], in test [8], in [10], in [11] and in test [12] was above 100 µM each time.
